Data on 1 molecule can be found in BindingDB's records for doi:10.1021/jm00108a040 (Eli Lilly, 1991).

For orientation: IC50 means the concentration needed to halve the response being measured. A high value points to weaker potency.

Assay [1] deals with Gastrin/cholecystokinin type B receptor (Cavia porcellus). In words: Inhibition of [125I]-labeled CCK-8 sulfate binding to Cholecystokinin type B receptor in guinea pig brain membranes.
Assay [2] shares this target. Described as above. The source holds these as a separate data set.

For `CCc1cccc(-n2c(CCc3c[nH]c4ccc(Br)cc34)nc3ccccc3c2=O)c1`, the IC50 in assay [1] and in assay [2] was 330 nM in each case.
